In patent US12029217B2, “Safened compositions comprising pyridine carboxylate herbicides and isoxadifen” (Corteva Agriscience LLC, priority 2018, dated 2024):

Columns and labels:
Type in all cases: in vivo
[1] = system: Amaranthus retroflexus (pigweed); assay: Greenhouse postemergence visual injury, pigweed (AMARE)
Description: (§1) Seeds of the desired test plant species were planted in a 90:10% v/v (volume/volume) mixture of PRO-MIX® BX (Premier Tech Horticulture, Quakertown, PA, USA) and PROFILE® GREENS GRADE™ (Profile Products LLC, Buffalo Grove, IL, USA) planting mixture, which typically has a pH of 5.2 to 6.2 and an organic matter content of at least 50 percent, in plastic pots with a surface area of 103.2 square centimeters (cm^2). When required to ensure good germination and healthy plants, a fungicide treatment and/or other chemical or physical treatment was applied. The plants were grown for 7-36 days (d) in a greenhouse with an approximate 14-hour (h) photo-period which was maintained at about 23° C. during the day and 22° C. during the night. Nutrients and water were added on a regular basis and supplemental lighting was provided with overhead metal halide 1000-Watt lamps as necessary. The plants were employed for testing when they reached the second or third true leaf stage.
(§2) Emulsifiable concentrates of each of each pyridine carboxylate herbicide (Compound A or Compound B) were prepared at 100 grams acid equivalent per liter (g ae/L). An aliquot of each emulsifiable concentrate was placed in a 25 mL glass vial and diluted with an aqueous mixture of 1.25% (v/v) ACTIROB® B esterified rapeseed oil (Bayer Crop Science, Research Triangle Park, NC, USA) or MSO® Concentrate with LECI-TECH® methylated soybean oil (Loveland Products, Loveland, CO, USA) to obtain concentrated stock solutions at the highest application rate for each herbicide, based upon a 12 milliliter (mL) application volume at a rate of 187 liters per hectare (L/ha). The concentrated stock solutions were further diluted with an aqueous mixture of 1.25% v/v ACTIROB® B or MSO® Concentrate with LECI-TECH® to obtain stock solutions at reduced application rates for each herbicide. Spray solutions of the herbicide combinations (Compound A or Compound B plus safener) were prepared by adding weighed amounts or aliquots of the safener to the stock solutions of Compound A or Compound B to form 12-mL spray solutions in two-way combinations.
(§3) The spray solutions were applied to the plant material with an overhead Mandel track sprayer equipped with 8002E nozzles calibrated to deliver 187 L/ha over an application area of 0.503 square meters (m^2) at a spray height of 18 inches (43 centimeters (cm)) above the average plant canopy. Control plants were sprayed in the same manner with the solvent blank. All herbicide (component a) application rates are given as “g ae/ha” and all safener (component b) application rates are given as “g ai/ha.”
(§4) The treated plants and control plants were placed in a greenhouse as described above and watered by sub-irrigation to prevent wash-off of the test compounds. After 20-22 d, the condition of the test plants as compared with that of the control plants was determined visually and scored on a scale of 0 to 100 percent where 0 corresponds to no injury and 100 corresponds to complete kill.

[2] = system: Amaranthus tamariscinus (common water hemp); assay: Greenhouse postemergence visual injury, common water hemp (AMATA); conditions: Example 7
Description: as §1, §2
(§5) The spray solutions were applied to the plant material with an overhead Mandel track sprayer equipped with 8002E nozzles calibrated to deliver 187 L/ha over an application area of 0.503 square meters (m^2) at a spray height of 18 inches (43 centimeters (cm)) above the average plant canopy. […]
as §4

[3] = system: Brassica napus (winter rape); assay: Greenhouse postemergence visual injury, winter rape (BRSNW)
Description: as §1, §2, §3, §4

[4] = system: Eleusine indica (goosegrass); assay: Greenhouse postemergence visual injury, goosegrass (ELEIN); conditions: Example 7
Description: as §1, §2, §5, §4

[5] = system: Kochia scoparia (kochia); assay: Greenhouse postemergence visual injury, kochia (KCHSC); conditions: Example 6
Description: as §1, §2, §5, §4

[6] = system: Ipomoea hederacea (ivyleaf morningglory); assay: Greenhouse postemergence visual injury, ivyleaf morningglory (IPOHE); conditions: Example 6
Description: as §1, §2, §5, §4

[7] = system: Ambrosia artemisiifolia (common ragweed); assay: Greenhouse postemergence visual injury, common ragweed (AMBEL); conditions: Example 7
Description: as §1, §2, §5, §4

[8] = system: Leptochloa chinensis (Chinese sprangletop); assay: Greenhouse postemergence visual injury, Chinese sprangletop (LEFCH); conditions: Example 6
Description: as §1, §2, §5, §4

[9] = system: Zea mays (maize); assay: Greenhouse postemergence visual injury, maize (ZEAMX)
Description: as §1, §2, §3, §4

[10] = system: Saccharum officinarum (sugarcane); assay: Greenhouse postemergence visual injury, sugarcane (SACOF); conditions: Example 3
Description: as §1, §2, §3, §4

[11] = system: Triticum aestivum (winter wheat); assay: Greenhouse postemergence visual injury, winter wheat (TRZAW)
Description: as §1, §2, §3, §4

[12] = system: Triticum aestivum (spring wheat); assay: Greenhouse postemergence visual injury, spring wheat (TRZAS)
Description: as §1, §2, §3, §4

[13] = system: Glycine max (soybean); assay: Greenhouse postemergence visual injury, soybean (GLXMA)
Description: as §1, §2, §3, §4

[14] = system: Digitaria sanguinalis (large crabgrass); assay: Greenhouse postemergence visual injury, large crabgrass (DIGSA)
Description: as §1, §2, §3, §4

[15] = system: Setaria faberi (giant foxtail); assay: Greenhouse postemergence visual injury, giant foxtail (SETFA)
Description: as §1, §2, §3, §4

[16] = isoxadifen-ethyl 20 g/ha, Example 4
[17] = isoxadifen-ethyl 20 g/ha, Example 5
[18] = isoxadifen-ethyl 20 g/ha, Example 6
[19] = isoxadifen-ethyl 40 g/ha, Example 4
[20] = isoxadifen-ethyl 40 g/ha, Example 5
[21] = isoxadifen-ethyl 40 g/ha, Example 6
[22] = isoxadifen-ethyl 80 g/ha, Example 4
[23] = isoxadifen-ethyl 80 g/ha, Example 5
[24] = isoxadifen-ethyl 80 g/ha, Example 6
[25] = isoxadifen-ethyl 120 g/ha, Example 4
[26] = isoxadifen-ethyl 120 g/ha, Example 5
[27] = isoxadifen-ethyl 10 g/ha, Example 1
[28] = isoxadifen-ethyl 20 g/ha, Example 1
[29] = isoxadifen-ethyl 40 g/ha, Example 1
[30] = isoxadifen-ethyl 10 g/ha, Example 7
[31] = isoxadifen-ethyl 20 g/ha, Example 7
[32] = isoxadifen-ethyl 20 g/ha, Example 2
[33] = isoxadifen-ethyl 40 g/ha, Example 2
[34] = isoxadifen-ethyl 80 g/ha, Example 2
[35] = isoxadifen-ethyl 120 g/ha, Example 2

Measured: % visual injury, Ob

N#CCOC(=O)c1nc(-c2ccc3cc[nH]c3c2F)c(F)c(N)c1Cl [Compound A, cyanomethyl 4-amino-3-chloro-5-fluoro-6-(7-fluoro-1H-indol-6-yl)pyridine-2-carboxylate]
55%: [9]; Compound A 40 g/ha, Example 5 | [10]; Compound A 20 g/ha
23%: [12]; Compound A 40 g/ha, Example 2
100%: [1]; Compound A 40 g/ha, Example 4 | [1]; Compound A 40 g/ha, Example 5 | [2]; Compound A 20 g/ha | [7]; Compound A 10 g/ha | [7]; Compound A 20 g/ha | [13]; Compound A 10 g/ha, Example 7 | [13]; Compound A 20 g/ha, Example 6 | [13]; Compound A 20 g/ha, Example 7
98%: [2]; Compound A 10 g/ha
65%: [15]; Compound A 20 g/ha, Example 6
13%: [9]; Compound A 20 g/ha, Example 6
18%: [10]; Compound A 5 g/ha
97%: [5]; Compound A 20 g/ha
0%: [6]; Compound A 20 g/ha
73%: [4]; Compound A 10 g/ha
95%: [3]; Compound A 20 g/ha, Example 1 | [15]; Compound A 20 g/ha, Example 7
30%: [12]; Compound A 40 g/ha, Example 4 | [14]; Compound A 20 g/ha, Example 6
85%: [3]; Compound A 20 g/ha, Example 6 | [15]; Compound A 10 g/ha, Example 7
48%: [9]; Compound A 10 g/ha, Example 7 | [10]; Compound A 10 g/ha
60%: [8]; Compound A 20 g/ha | [9]; Compound A 20 g/ha, Example 7 | [10]; Compound A 40 g/ha
28%: [14]; Compound A 10 g/ha, Example 7
25%: [11]; Compound A 20 g/ha, Example 6 | [11]; Compound A 40 g/ha, Example 2 | [12]; Compound A 20 g/ha, Example 1
93%: [1]; Compound A 20 g/ha, Example 6 | [4]; Compound A 20 g/ha
40%: [14]; Compound A 20 g/ha, Example 7

CCOC(=O)C1=NOC(c2ccccc2)(c2ccccc2)C1 [Isoxadifen-ethyl, isoxadifen-ethyl]
0%: [1]; [16] | [1]; [17] | [1]; [18] | [1]; [19] | [1]; [20] | [1]; [21] | [1]; [22] | [1]; [23] | [1]; [24] | [1]; [25] | [1]; [26] | [2]; isoxadifen-ethyl 10 g/ha | [2]; isoxadifen-ethyl 20 g/ha | [3]; [27] | [3]; [28] | [3]; [18] | [3]; [29] | [3]; [21] | [3]; [24] | [4]; isoxadifen-ethyl 10 g/ha | [4]; isoxadifen-ethyl 20 g/ha | [5]; isoxadifen-ethyl 20 g/ha | [5]; isoxadifen-ethyl 40 g/ha | [5]; isoxadifen-ethyl 80 g/ha | [6]; isoxadifen-ethyl 20 g/ha | [6]; isoxadifen-ethyl 40 g/ha | [6]; isoxadifen-ethyl 80 g/ha | [7]; isoxadifen-ethyl 10 g/ha | [7]; isoxadifen-ethyl 20 g/ha | [8]; isoxadifen-ethyl 20 g/ha | [8]; isoxadifen-ethyl 40 g/ha | [8]; isoxadifen-ethyl 80 g/ha | [9]; [30] | [9]; [17] | [9]; [18] | [9]; [31] | [9]; [20] | [9]; [21] | [9]; [23] | [9]; [24] | [9]; [26] | [10]; isoxadifen-ethyl 10 g/ha | [10]; isoxadifen-ethyl 20 g/ha | [10]; isoxadifen-ethyl 40 g/ha | [10]; isoxadifen-ethyl 80 g/ha | [11]; [32] | [11]; [18] | [11]; [33] | [11]; [21] | [11]; [34] | [11]; [24] | [11]; [35] | [12]; [27] | [12]; [28] | [12]; [32] | [12]; [16] | [12]; [29] | [12]; [33] | [12]; [19] | [12]; [34] | [12]; [22] | [12]; [35] | [12]; [25] | [13]; [30] | [13]; [18] | [13]; [31] | [13]; [21] | [13]; [24] | [14]; [30] | [14]; [18] | [14]; [31] | [14]; [21] | [14]; [24] | [15]; [30] | [15]; [18] | [15]; [31] | [15]; [21] | [15]; [24]
